This note sets out measurements from US20210017180A1, “PYCLEN-BASED MACROCYCLIC LIGANDS, CHELATES THEREOF AND USES THEREOF” (CENTRE NATIONAL DE LA RECHERCHE SCIENTIFIQUE, priority 2018, published 2021).

A short description of this series: Brightness B = Φ * εmax. The format is physicochemical. The note with it: versus chelate of unsubstituted ligand (Table 7). From the text: • “Brightness (B)” refers to the amount of radiation emitted by a chromophore or dye. In the case of one-photon absorption, B is defined as the product of the emission quantum yield (Φ) by the molar absorption coefficient (ε), i.e., B=ε·Φ, at a given excitation wavelength. In the case of two-photon absorption, B is defined as the product of the emission quantum yield (Φ) by the cross section (σ), i.e., […], at a given excitation wavelength. • “Carboxylate ester” refers to an ester of a molecule, said molecule comprising at least one carboxylic acid function (—COOH), wherein the ester is formed by esterification of at least one carboxylic acid function of the molecule. Preferred carboxylic esters are methyl esters. “Mono-ester”, “di-ester” and “tri-ester” respectively refers to esters wherein exactly one, two and three carboxylic acid functions have been esterified. • “Carboxylate salt” refers to a salt of a molecule, said molecule comprising at least one carboxylic acid function (—COOH), wherein the salt is formed by deprotonation of at least one carboxylic acid function of the molecule. Preferred carboxylic salts are potassium or sodium salts, more preferably potassium salts. […]

As for `COCCOCCOCCOc1ccc(C#Cc2cc(CN3CCN(CC(=O)[O-])Cc4cccc(n4)CN(Cc4cc(C#Cc5ccc(OCCOCCOCCOC)cc5)cc(C(=O)[O-])n4)CC3)nc(C(=O)[O-])c2)cc1.[K+].[K+].[K+]` [Complex S1, potassium 6,6′-((9-(carboxylatomethyl)-3,6,9-triaza-1(2,6)-pyridinacyclodecaphane-3,6-diyl)bis(methylene)) bis(4-((4-(2-(2-(2-methoxyethoxy)ethoxy)ethoxy)phenyl)ethynyl) picolinate)], the “increase in brightness of europium chelate on substitution of picolinate arms by chromophore” value is given as “about 4 fold”. Turning to `COCCOCCOCCOc1ccc(C#Cc2cc(CN3CCN(CC(=O)[O-])CCN(Cc4cc(C#Cc5ccc(OCCOCCOCCOC)cc5)cc(C(=O)[O-])n4)Cc4cccc(n4)C3)nc(C(=O)[O-])c2)cc1.[K+].[K+].[K+]` [Complex S4, potassium 6,6′-((6-(carboxylatomethyl)-3,6,9-triaza-1(2,6)-pyridinacyclodecaphane-3,9-diyl)bis(methylene)) bis(4-((4-(2-(2-(2-methoxyethoxy)ethoxy)ethoxy)phenyl)ethynyl) picolinate)], the “increase in brightness of europium chelate on substitution of picolinate arms by chromophore” value is “about 3 fold”.
